# Data published in PMC5750218, “Protein-inspired antibiotics active against vancomycin- and daptomycin-resistant bacteria” (Nature Communications, 2018).
# Read-outs that look alike come from different tables or passages of the source.
# Key:
# [1] = test system: Vancomycin-resistant S. aureus NARSA VRS4; experiment: microbe, parasite or virus in culture; type: cell-based, Staphylococcus aureus; details: Staphylococcus aureus, VRSA, read-out: MIC VRSA
# [2] = test system: Multi-drug-resistant S. pneumoniae ATCC 700677; experiment: microbe, parasite or virus in culture
# Method in brief: (§1)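 MICs were determined by broth microdilution in Mueller Hinton broth. Bacteria were pregrown overnight, diluted 40-fold and regrown 2–3 h at 37 °C.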
# [3] = test system: Vancomycin-intermediate S. aureus NRS1; experiment: microbe, parasite or virus in culture
# Method in brief: as §1
# [4] = test system: Vancomycin-resistant (VanA) Enterococcus faecium ATCC 51559; experiment: microbe, parasite or virus in culture
# Method in brief: as §1
# [5] = test system: Methicillin-sensitive S. aureus ATCC 29213; experiment: microbe, parasite or virus in culture; type: cell-based, Staphylococcus aureus; details: for MIC: Staphylococcus aureus, ATCC 29213 / MSSA; for MIC S. aureus ATCC29213 MSSA, NBS: non-binding surface plate; for MIC S. aureus ATCC29213 MSSA, PS+P-80: polystyrene plate with 0.002% polysorbate-80
# Method: Antimicrobial activity of compounds was tested against a number of bacterial strains by broth microdilution (BMD) assay with MIC determination, including S. aureus (MSSA ATCC® 29213™, MRSA ATCC® 43300™, VISA NARSA NRS1, VISA NARSA NRS4), Streptococcus pneumoniae (MDR ATCC® 700677™) and Enterococcus faecium (MDR VanA ATCC® 51559™). ATCC strains were sourced from the American Type Culture Collection and NRS strains from NARSA (Network on Antimicrobial Resistance in S. aureus) via BEI Resources (www.beiresources.org). All compounds were prepared to 160 µg mL^−1 solution in water from a stock solution of 1 mM concentration.
# […] […] Standards ranged from 64 to 0.03 µg mL^−1 and compounds from 8 to 0.003 µg mL^−1 with final assay volumes of 100 µL per well. Gram-positive bacteria were cultured in Mueller Hinton broth (MHB) (Bactolaboratories, Cat. no. 211443) at 37 °C overnight. A sample of each culture was then diluted 40-fold in fresh MHB and incubated at 37 °C for 2–3 h. The resultant mid-log phase cultures were added to the compound-containing 96-well plates to give a final cell density of 5 × 10^5 colony forming unit (CFU) mL^−1. All the plates were covered and incubated at 37 °C for 24 h. MICs were the lowest concentration showing no visible growth.
# [6] = Cytotoxicity MTT assay; type: cell-based, human; details: human
# [7] = Cytotoxicity MTT assay; type: cell-based, human; details: human; remark: listed apart in the source
# Method in brief: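 HepG2 and HEK293 cells, 1.5 × 10^4 per well in DMEM with 1% FBS, were allowed to attach for 24 h, then exposed 24 h at 37 °C to compounds at 100 µM to 0.046 µM in threefold steps. MTT (0.4 mg mL^−1) was added for 2 h, and formazan in DMSO was read at 570 nm. Viability is given as percent of control, corrected for a positive control.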
# [8] = test system: S. aureus ATCC 43300; experiment: Membrane permeability assay (propidium iodide); type: cell-based, Staphylococcus aureus
# Method: To evaluate the ability of the compounds to disrupt the cytoplasmic membrane integrity, the membrane impermeable fluorescent DNA intercalating dye propidium iodide (PI) was used. Early exponential phase cells were pelleted and washed twice in 10 mM HEPES buffer (pH 7.4) containing 50 µg mL^−1 of CaCl2 and 5 mM glucose, and then re-suspended in the same buffer (4 × 10^8 CFU mL^−1). Cell suspension was added to a 384-well black walled polystyrene plate (Corning, CLS3573) containing compounds, giving a final concentration of 16 µg mL^−1. After 1 h incubation at 37 °C, 5 µg mL^−1 of PI was added and fluorescence was monitored for 90 min using a Tecan Infinite® m1000 Pro Multi-mode reader (excitation/emission 535/620 nm). Data were corrected by subtraction of fluorescence signal arising from untreated cells in the presence of PI. […] Each sample was tested in quadruplicate and independent assays were performed twice showing similar results. Data was analysed and presented using Prism software.
smiles,measurement,setting,value
"CN[C@H](CC(C)C)C(=O)N[C@H]1C(=O)N[C@@H](CC(N)=O)C(=O)N[C@H]2C(=O)N[C@H]3C(=O)N[C@H](C(=O)N[C@H](C(=O)O)c4cc(O)cc(O)c4-c4cc3ccc4O)[C@H](O[C@H]3C[C@](C)(N)[C@@H](O)[C@H](C)O3)c3ccc(c(Cl)c3)Oc3cc2cc(c3O[C@@H]2O[C@H](CO)[C@@H](O)[C@H](O)[C@H]2O[C@H]2C[C@](C)(NCc3ccc(-c4ccc(Cl)cc4)cc3)[C@@H](O)[C@H](C)O2)Oc2ccc(cc2Cl)[C@H]1O [Compound 5, Oritavancin, reference compound]",MIC,[1],0.125 µg/mL
same,MIC,"[2]; Streptococcus pneumoniae, ATCC700677, read-out: MIC MDR S.P.",0.06 µg/mL
same,MIC,"[3]; Staphylococcus aureus, NRS1 / VISA, read-out: MIC VISA",1 µg/mL
same,MIC,"[4]; Enterococcus faecium, ATCC51559 / VRE, read-out: MIC VRE",0.125 µg/mL
same,MIC,[5]; read-out: MIC MSSA,≤ 0.016 µg/mL
same,MIC,"[5]; read-out: MIC S. aureus ATCC29213 MSSA, NBS",≤ 0.016 µg/mL
same,MIC,"[5]; read-out: MIC S. aureus ATCC29213 MSSA, PP",1 µg/mL
same,MIC,"[5]; read-out: MIC S. aureus ATCC29213 MSSA, PS",1 µg/mL
same,MIC,"[5]; read-out: MIC S. aureus ATCC29213 MSSA, PS+P-80",0.031 µg/mL
same,CC50 at 24 h,"[6]; 24 h, MTT, 1% FBS, read-out: Cytotoxicity CC50 HepG2",25 µM
same,CC50 at 24 h,"[7]; 24 h, MTT, 1% FBS, read-out: Cytotoxicity CC50 HEK293",29 µM
"CCCCCCCCCCCCCC(=O)N[C@@H](CCCCN)C(=O)N[C@@H](CCCCN)C(=O)N[C@@H](CCCCN)C(=O)N[C@@H](CCCCNC(=O)[C@H]1NC(=O)[C@H]2NC(=O)[C@H](NC(=O)[C@@H]3NC(=O)[C@H](CC(N)=O)NC(=O)[C@H](NC(=O)[C@@H](CC(C)C)NC)[C@H](O)c4ccc(c(Cl)c4)Oc4cc3cc(c4O[C@@H]3O[C@H](CO)[C@@H](O)[C@H](O)[C@H]3O[C@H]3C[C@](C)(N)[C@H](O)[C@H](C)O3)Oc3ccc(cc3Cl)[C@H]2O)c2ccc(O)c(c2)-c2c(O)cc(O)cc21)C(=O)O [Compound 17, nC13CO-KKK-K(Vancomycin)-OH]",MIC MDR S.P.,[2]; ATCC 700677,<0.003 µg/mL
same,MIC VISA,[3]; Vancomycin-intermediate NRS1,0.03 µg/mL
same,MIC VRE,[4]; ATCC 51559,0.125 µg/mL
same,"MIC S. aureus ATCC29213 MSSA, PP",[5]; ATCC 29213,1 to 2 µg/mL
same,"MIC S. aureus ATCC29213 MSSA, PS",[5]; ATCC 29213,1 µg/mL
same,"MIC S. aureus ATCC29213 MSSA, NBS",[5],≤ 0.016 µg/mL
same,"MIC S. aureus ATCC29213 MSSA, PS+P-80",[5],≤ 0.016 µg/mL
same,CC50 at 24 h,[6],15 µM
same,CC50 at 24 h,[7],19 µM
same,Membrane permeabilisation (propidium iodide fluorescence),[8],comparable fluorescence intensity to oritavancin
"CN[C@H]1C(=O)N[C@@H]2Cc3ccc(cc3)Oc3cc4cc(c3O[C@@H]3O[C@H](C(=O)O)[C@@H](O)[C@H](O)[C@H]3NC(=O)CCCCCCCCC(C)C)Oc3ccc(cc3Cl)[C@@H](O)[C@@H]3NC(=O)[C@H](NC(=O)[C@@H]4NC(=O)[C@@H](NC2=O)c2cc(cc(O)c2Cl)Oc2cc1ccc2O)c1ccc(O)c(c1)-c1c(O[C@H]2O[C@H](CO)[C@@H](O)[C@H](O)[C@@H]2O)cc(O)cc1[C@@H](C(=O)NCCCN(C)C)NC3=O [Compound 3, Dalbavancin]",MIC MDR S.P.,[2]; S. pneumoniae ATCC 700677,0.09 µg/mL
same,MIC VISA,[3]; S. aureus NRS1,1 µg/mL
same,MIC VRE,"[4]; E. faecium MDR VanA ATCC 51559, substance alone",>8 µg/mL
same,MIC MSSA,[5]; S. aureus ATCC 29213,≤0.016 µg/mL
same,"MIC S. aureus ATCC29213 MSSA, NBS",[5],≤ 0.016 µg/mL
same,"MIC S. aureus ATCC29213 MSSA, PP",[5]; polypropylene plate,0.125 µg/mL
same,"MIC S. aureus ATCC29213 MSSA, PS+P-80",[5],≤ 0.016 µg/mL
same,"MIC S. aureus ATCC29213 MSSA, PS","[5]; polystyrene plate, no polysorbate-80",0.25 µg/mL
same,Membrane permeabilisation (propidium iodide fluorescence),[8],little to no effect
"CCCCCCCCCCC(=O)N[C@@H](CCCCN)C(=O)N[C@@H](CCCCN)C(=O)N[C@@H](CCCCNC(=O)[C@H]1NC(=O)[C@H]2NC(=O)[C@H](NC(=O)[C@@H]3NC(=O)[C@H](CC(N)=O)NC(=O)[C@H](NC(=O)[C@@H](CC(C)C)NC)[C@H](O)c4ccc(c(Cl)c4)Oc4cc3cc(c4O[C@@H]3O[C@H](CO)[C@@H](O)[C@H](O)[C@H]3O[C@H]3C[C@](C)(N)[C@H](O)[C@H](C)O3)Oc3ccc(cc3Cl)[C@H]2O)c2ccc(O)c(c2)-c2c(O)cc(O)cc21)C(N)=O [Compound 21, nC10CO-KK-K(Vancomycin)-NH2]",MIC MDR S.P.,[2]; ATCC 700677,0.015 µg/mL
same,MIC VISA,[3]; Vancomycin-intermediate NRS1,0.06 µg/mL
same,MIC VRE,[4]; ATCC 51559,2 µg/mL
same,CC50 at 24 h,[6],131 µM
same,CC50 at 24 h,[7],113 µM
